Like-named read-outs stand apart in the source and are kept apart here.
How the values were obtained:
[1] = test system: E. coli BW25113 overexpression strains (ASKA plasmids); experiment: Minimum inhibitory concentration (MIC), serial broth dilution, single-gene overexpression strains vs empty-vector control; assay type: cell-based, Escherichia coli; details: for Average relative change in MIC: mlaD overexpression strain relative to control (wild-type+empty vector), 3 replicates each, from optical density values of serial dilution plates, AMP in µg ml-1; for Relative MIC: broth dilution, MS medium, 100 µM IPTG, 30 °C, 20-24 h, OD600, 3 replicates
Outline: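 E. coli overexpression strains grown in MS medium with chloramphenicol, induced with 100 µM IPTG for 1 h at 30 °C, then about half-million cells inoculated into 12-step AMP dilutions (typically 1.2-fold steps). OD600 read after 20–24 h at 30 °C with shaking; triplicate strains compared with empty-vector control.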

[2] = test system: bacterial membrane; details: literature mining; ref superscript numbers in the cell, listed in Supplementary Data 7 sheet References; cited from earlier work
Description: Supplement 41467_2019_13618_MOESM10_ESM.xlsx, sheet "AMP details" | column: Pore formation

[3] = test system: E. coli K12 BW25113 carrying the pooled ASKA overexpression plasmid library (~4400 ORFs); experiment: Chemical-genetic profiling: pooled competitive growth of the ASKA gene-overexpression library with and without AMP, deep sequencing readout; assay type: cell-based, Escherichia coli
Description: We generated chemical-genetic interaction profiles for a diverse set of AMPs (Table 1) by screening them against a comprehensive library of gene overexpressions in E. coli[21]. Increasing gene dosage is a widely applied approach to reveal the targets of small-molecule antibiotics[22],[23]. It also informs on the ‘latent resistome’, that is, the collection of genes where a change from native expression level enhances resistance to a particular drug[24]. We applied a sensitive competition assay by monitoring growth of a pooled plasmid library, overexpressing all the E. coli ORFs (Fig. 1a), as we reported earlier. Specifically, E. coli cells carrying the pooled plasmid collection were grown in the presence or absence of one of the 15 AMPs tested, at a sub-inhibitory concentration that increased the doubling time of the whole population by 2-fold. Following 12 generations of growth, the plasmid pool was isolated from each selection and the relative abundance of each plasmid was determined by a deep sequencing readout (see Methods).
We carried out chemical-genetic profiling to determine the impact of the overexpression of each E. coli ORF on bacterial susceptibility to each of the 15 different AMPs. To this end, we used the complete set of E. coli K-12 Open Reading Frame Archive (ASKA) plasmid library (GFP minus) where each E. coli ORF is cloned into a high copy number expression plasmid (pCA24N-ORFGFP(-)). Prior to screening, the ASKA library was grown in the original host strain E. coli K-12 AG1 in 96-well plates (growth conditions: 37 °C, 280 rpm, LB medium). An equal aliquot of each member of the ASKA library (each well of the 96-well plates) was pooled together and the plasmid DNA (pCA24N-ORF-GFP(-)) was isolated and transformed into E. coli K12 BW25113 strain[51]. To obtain a negative control strain not having any overexpressed gene, the plasmid without a cloned ORF (pCA24N-noORF) was also transformed into the same E. coli strain. Then, on the pooled collection, we applied a previously reported competitive growth assay. Specifically, the pooled overexpression library and the control strain were grown in parallel in MS medium supplemented with 20 µg per ml chloramphenicol and the overexpression was induced by 100 µM isopropyl-ß-D-thiogalactopyranoside (IPTG). After 1 h induction, ~5 × 10^5 bacterial cells from the library were inoculated into each well of a 96-well microtiter plate containing a concentration gradient of an AMP in the MS medium supplemented with 20 µg per ml chloramphenicol and 100 µM IPTG. At the same time, both the library and the control strain with the empty plasmid were grown in the absence of any AMPs. We took special care to grow both of these samples in the exact same conditions as the samples in the presence of AMPs. Bacterial growth was monitored in a microplate reader (Biotek Synergy 2) for 24 h. At the end of the exponential growth phase, we selected those wells in which the doubling time of the cell population was increased by 2-fold. Then, from these wells, cells were split into four equal proportion and each was transferred into 20 mL of MS medium supplemented with the corresponding AMP in four different concentrations in the range that slowed down growth by two-fold in the microtitre plate. […] The rationale for this 2-step process was to maintain competition in exponential phase for 12 generations of growth, efficiently control the growth rate in a reproducible manner and obtain the plasmid pool with standard DNA isolation protocol (innuPREP plasmid mini Kit, Analytik Jena AG) in a yield that is enough for the downstream analysis. The cultures were vigorously shaken along the entire protocol to make sure that the cultures are completely homogeneous and therefore biasing interactions between clones (such as trans-resistance) was minimized. […]

[4] = test system: E. coli gene overexpression; details: cited from earlier work
Description: Supplement 41467_2019_13618_MOESM1_ESM.docx, table 1: Supplementary Table 1. Collected examples of E. coli gene overexpression from the literature as a confirmation of our chemical-genetic screen results. | column: Overexpression phenotype

[5] = overexpression strain gadW, MIC of overexpression strain / MIC of empty-plasmid control
[6] = overexpression strain mlaC, MIC of overexpression strain / MIC of empty-plasmid control
[7] = overexpression strain mlaD, MIC of the overexpression strain / MIC of the control strain (wild-type carrying the empty plasmid)
[8] = overexpression strain mzrA, MIC of overexpression strain / MIC of empty-plasmid control
[9] = overexpression strain nikB, MIC of overexpression strain / MIC of empty-plasmid control
[10] = overexpression strain hyfA, MIC of overexpression strain / MIC of empty-plasmid control
[11] = overexpression strain lptB, MIC of overexpression strain / MIC of empty-plasmid control
[12] = overexpression strain ytjB, MIC of overexpression strain / MIC of empty-plasmid control
[13] = overexpression strain murA, MIC of overexpression strain / MIC of empty-plasmid control
[14] = overexpression strain rpoH, MIC of overexpression strain / MIC of empty-plasmid control
[15] = overexpression strain yiaJ, MIC of overexpression strain / MIC of empty-plasmid control

Sequence | Average relative change in MIC [1] | Relative MIC [1, 5] | Relative MIC [1, 6] | Relative MIC [1, 7] | Relative MIC [1, 8] | Relative MIC [1, 9] | Pore formation (whether AMP makes pores in the bacterial membrane) [2] | Relative MIC [1, 10] | Relative MIC [1, 11] | Relative MIC [1, 12] | Relative MIC [1, 13] | Relative MIC [1, 14] | Relative MIC [1, 15] | other results
RWCFRVCYRGICYRKCR [TPII, Tachyplesin II, antimicrobial peptide from Japanese horseshoe crab; disrupts cell membrane; cluster C1] | 1.47 | 1 | 1 | 1.47 | 1.27 | 0.8 | Yes1 | – | – | – | – | – | – | –
LLGDFFRKSKEKIGKEFKRIVQRIKDFLRNLVPRTES [LL37, LL-37 human cathelicidin, human host-defense peptide; disrupts cell membrane; cluster C2] | 2.42 | 0.79 | 1.43 | 2.5 | – | – | Yes22 | 0.74 | 1.2 | 1.2 | – | – | – | Overexpression phenotype, Chemical-genetic profile ([3]; gene ompT, whether the literature phenotype was captured by the overexpression screen): Confirmed; Relative MIC ([1]; overexpression strain yijE, MIC of overexpression strain / MIC of empty-plasmid control): 1.2; Overexpression phenotype, Literature ([4]; gene marA overexpressed, ref 3 (Warner & Levy 2010)): Resistance^3; Overexpression phenotype, Literature ([4]; gene ompT overexpressed, ref 4 (Stumpe et al. 1998)): Resistance^4
RFRPPIRRPPIRPPFYPPFRPPIRPPIFPPIRPPFRPPLGPFP [BAC5, Bactenecin 5, antimicrobial peptide from bovine neutrophils; cluster C4] | 0.74 | 1.3 | 1 | 0.74 | – | – | – | – | 0.67 | – | 0.8 | 0.8 | 0.7 | Overexpression phenotype, Chemical-genetic profile ([3]; gene ptrB, whether the literature phenotype was captured by the overexpression screen (9 out of 13 captured)): Confirmed; Chemical-genetic score ([3]; overexpressed gene mlaD, read numbers in presence vs absence of AMP, sub-inhibitory dose doubling the doubling time, 12 generations, average of biological replicates): -2.101 log2 fold change; Relative MIC ([1]; overexpression strain mhpA, MIC of overexpression strain / MIC of empty-plasmid control): 0.79; Relative MIC ([1]; overexpression strain yhbJ, MIC of overexpression strain / MIC of empty-plasmid control): 0.8; Overexpression phenotype, Literature ([4]; gene ptrB overexpressed, ref 2 (Mattiuzzo et al. 2014)): Resistance^2
ILPWKWPWWPWRR [IND, Indolicidin, antimicrobial peptide from bovine neutrophils; cluster C3] | 0.82 | – | – | 0.78 | 0.62 | 0.76 | Yes39 | >1.2 | – | 0.8 | 0.8 | 0.64 | 0.8 | Relative MIC ([1]; overexpression strain cvpA, MIC of overexpression strain / MIC of empty-plasmid control): 0.76; Relative MIC ([1]; overexpression strain ptsN, MIC of overexpression strain / MIC of empty-plasmid control): 0.76; Relative MIC ([1]; overexpression strain uhpC, MIC of overexpression strain / MIC of empty-plasmid control): 0.8
GIGKFLKKAKKFGKAFVKILKK [PEX, Pexiganan, synthetic Magainin derivative; disrupts cell membrane; cluster C2] | 1.71 | 0.7 | 1.85 | 1.85 | 1 | – | Yes13 | 0.7 | 1.3 | – | 1.44 | 1.44 | – | Relative MIC ([1]; overexpression strain narY, MIC of overexpression strain / MIC of empty-plasmid control): 0.8

Source: PMC6915728 (Nature Communications, 2019)
